Results reported in ChEMBL document CHEMBL2401675, “Design, synthesis, and biological evaluation of novel dipeptide-type SARS-CoV 3CL protease inhibitors: structure-activity relationship study” (Eur J Med Chem, 2013).

molecular target: Replicase polyprotein 1a (Severe acute respiratory syndrome-related coronavirus) (UniProt P0C6U8); assay: Ratio of Kinact to Ki for SARS coronavirus Chymotrypsin-like protease

How did the Ratio turn out when `CCOC(=O)C1OC1C(=O)N(CCC(N)=O)NC(=O)[C@@H](CC(=O)[C@H](CC(C)C)NC(=O)OCc1ccccc1)Cc1ccccc1` (some centres not stated) was run?
The Ratio was 1900 M⁻¹ s⁻¹.

molecular target: Replicase polyprotein 1a (Severe acute respiratory syndrome-related coronavirus, UniProt P0C6U8); assay: Inhibition of SARS coronavirus Chymotrypsin-like protease using H-Thr-Ser-Ala-Val-Leu-Gln-Ser-Gly-Phe-Arg-Lys-NH2 as substrate by fluorescence assay

With `CC(C)C[C@H](NC(=O)Cc1ccccc1)C(=O)N[C@@H](C[C@@H]1CCNC1=O)C(=O)c1nc2ccccc2s1` as the molecule, how does the Ki read?
The Ki was 3200 nM.

`CSCC[C@H](NC(=O)OCc1ccccc1)C(=O)N[C@@H](C[C@@H]1CCNC1=O)C(=O)c1nc2ccccc2s1` was tested. Which Ki did it give?
Its Ki is 9400 nM.

How did the Ki turn out when `CC(C)C[C@H](NC(=O)CCc1cccnc1)C(=O)N[C@@H](C[C@@H]1CCNC1=O)C(=O)c1nc2ccccc2s1` was run?
Its Ki is 7400 nM.

For `COc1ccc(NCC(=O)N[C@@H](CC(C)C)C(=O)N[C@@H](C[C@@H]2CCNC2=O)C(=O)c2nc3ccccc3s2)cc1`, which Ki is on record?
Its Ki is 3200 nM.

With `COc1ccc(-c2cnc(C(=O)[C@H](C[C@@H]3CCNC3=O)NC(=O)[C@H](CC(C)C)NC(=O)OCc3ccccc3)s2)cc1` as the molecule, how does the Ki read?
The Ki was 52000 nM.

How did the Ki turn out when `O=C(N[C@@H](Cc1ccccc1)C(=O)N[C@@H](C[C@@H]1CCNC1=O)C(=O)c1nc2ccccc2s1)OCc1ccccc1` was run?
Its Ki is 1200 nM.

With `COc1ccc(/C=C/C(=O)N[C@@H](CC(C)C)C(=O)N[C@@H](C[C@@H]2CCNC2=O)C(=O)c2nc3ccccc3s2)cc1OC` as the molecule, how does the Ki read?
The Ki was 1300 nM.

Which Ki does the source give for `CC(C)C[C@H](NC(=O)COc1cccc(N(C)C)c1)C(=O)N[C@@H](C[C@@H]1CCNC1=O)C(=O)c1nc2ccccc2s1` here?
Its Ki is 840 nM.

For `COc1ccc(CCC(=O)N[C@@H](CC(C)C)C(=O)N[C@@H](C[C@@H]2CCNC2=O)C(=O)c2nc3ccccc3s2)cc1`, which Ki is on record?
The Ki was 610 nM.

With `COc1ccccc1-c1cnc(C(=O)[C@H](C[C@@H]2CCNC2=O)NC(=O)[C@H](CC(C)C)NC(=O)OCc2ccccc2)s1` as the molecule, how does the Ki read?
The Ki was 2500 nM.

Which Ki does the source give for `CC(C)C[C@H](NC(=O)OCc1ccccc1)C(=O)N[C@@H](C[C@@H]1CCNC1=O)C(=O)c1ncc(-c2ccccc2)s1` here?
The Ki was 660 nM.

For `CC(C)[C@H](NC(=O)OCc1ccccc1)C(=O)N[C@@H](C[C@@H]1CCNC1=O)C(=O)c1nc2ccccc2s1`, which Ki is on record?
The Ki was 1710 nM.

With `CC[C@@H](C)[C@H](NC(=O)OCc1ccccc1)C(=O)N[C@@H](C[C@@H]1CCNC1=O)C(=O)c1nc2ccccc2s1` as the molecule, how does the Ki read?
The Ki was 29000 nM.

How did the Ki turn out when `COc1ccc(/C=C/C(=O)N[C@@H](CC(C)C)C(=O)N[C@@H](C[C@@H]2CCNC2=O)C(=O)c2nc3ccccc3s2)cc1` was run?
The Ki was 700 nM.

With `CCCC[C@H](NC(=O)OCc1ccccc1)C(=O)N[C@@H](C[C@@H]1CCNC1=O)C(=O)c1nc2ccccc2s1` as the molecule, how does the Ki read?
The Ki was 1600 nM.

Which Ki does the source give for `COc1ccc(OCC(=O)N[C@@H](CC(C)C)C(=O)N[C@@H](C[C@@H]2CCNC2=O)C(=O)c2nc3ccccc3s2)cc1` here?
Its Ki is 1560 nM.

With `CC(C)C[C@H](NC(=O)/C=C/c1ccccc1)C(=O)N[C@@H](C[C@@H]1CCNC1=O)C(=O)c1nc2ccccc2s1` as the molecule, how does the Ki read?
The Ki was 690 nM.

`CC(C)C[C@H](NC(=O)COc1ccc(O)cc1)C(=O)N[C@@H](C[C@@H]1CCNC1=O)C(=O)c1nc2ccccc2s1` was tested. Which Ki did it give?
Its Ki is 8400 nM.

How did the Ki turn out when `CC(C)C[C@H](NC(=O)OC(C)(C)C)C(=O)N[C@@H](C[C@@H]1CCNC1=O)C(=O)c1nc2ccccc2s1` was run?
Its Ki is 23000 nM.

How did the Ki turn out when `CC(C)CC(=O)N[C@@H](CC(C)C)C(=O)N[C@@H](C[C@@H]1CCNC1=O)C(=O)c1nc2ccccc2s1` was run?
Its Ki is 5900 nM.

How did the Ki turn out when `Cc1ccc(-c2cnc(C(=O)[C@H](C[C@@H]3CCNC3=O)NC(=O)[C@H](CC(C)C)NC(=O)OCc3ccccc3)s2)cc1` was run?
The Ki was 37000 nM.
